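Tested at 5 concentrations; 48 h exposure; 96-well plates; endpoints linearly interpolated, else capped at highest concentration. Here, GI50 denotes the concentration required for 50% inhibition of growth. Definition used: TGI = concentration required for complete inhibition of growth.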
Experiments:
Assay in all cases: NCI tumour cell line growth inhibition, 48 h
KM20L2 colon = test system: KM20L2 colon
M19-MEL melanoma = test system: M19-MEL melanoma
DMS 114 small cell lung = test system: DMS 114 small cell lung
HOP-18 NSCLC = test system: HOP-18 NSCLC
DLD-1 colon = test system: DLD-1 colon
LXFL 529 NSCLC = test system: LXFL 529 NSCLC
MDA-N = test system: MDA-N
RXF-631 renal = test system: RXF-631 renal

Row | Structure (SMILES) | TGI (KM20L2 colon) [µM] | TGI (M19-MEL melanoma) [µM] | TGI (DMS 114 small cell lung) [µM] | TGI (HOP-18 NSCLC) [µM] | TGI (DLD-1 colon) [µM] | TGI (LXFL 529 NSCLC) [µM] | further results
1 | CC1CCC(=O)C(C(O)CC2CC(=O)N(c3ccccc3)C(=O)C2)C1 (stereo unspecified) | > 100 | > 100 | > 100 | > 100 | > 100 | > 100 | 
2 | CN(NC1OC(CO)C(O)C(O)C1O)c1ccccc1 (stereo unspecified) | > 100 | > 100 |  | > 100 | > 100 | > 100 | 
3 | COc1ccc2nc3cc([N+](=O)[O-])ccc3c(NNc3ccccc3)c2c1 |  |  |  |  |  |  | TGI (MDA-N): > 100 µM
4 | COc1cc(-c2ccc(NC(=O)SCCC(=O)O)cc2OC)ccc1NC(=O)SCCC(=O)O | > 100 | > 100 | > 100 |  |  | > 100 | 
5 | O=C(O)c1c(Cl)c(Cl)c(Cl)c(Cl)c1C(=O)Nc1ccc2cn[nH]c2c1 |  |  |  |  |  |  | TGI (MDA-N): > 100 µM
6 | O=C1C2c3[nH]c4ccccc4c3C3CCCCCC3C2C(=O)N1c1ccccc1 (stereo unspecified) | > 100 | > 100 | > 100 | > 60.4 | > 100 | > 100 | 
7 | O=C(/C=C/C(Cl)(Cl)Cl)Nc1ccc(Cl)cc1 |  |  |  |  |  |  | TGI (MDA-N): 13.8 µM
8 | CC(=O)[CH-]C(=O)c1ccccc1.CC(=O)[CH-]C(=O)c1ccccc1.CC(C)CCC[C@H](C)C1CCC2[C@@H]3CC=C4C[C@@H]([O-])CC[C@]4(C)C3CC[C@@]21C.CC(C)CCC[C@H](C)C1CCC2[C@@H]3CC=C4C[C@@H]([O-])CC[C@]4(C)C3CC[C@@]21C.Cl.[Ti+4] (stereo partly specified) | > 25 |  |  | > 25 | > 25 | > 25 | GI50 (KM20L2 colon): > 25 µM; GI50 (HOP-18 NSCLC): > 25 µM; GI50 (DLD-1 colon): > 25 µM; GI50 (LXFL 529 NSCLC): > 25 µM
9 | O=C(CO[N+](=O)[O-])OC/C=C/c1ccccc1 | > 100 | > 100 | > 100 |  | > 100 | > 100 | 
10 | O=Cc1c(-c2ccccc2)[nH]c2ccccc2c1=O |  |  |  |  |  |  | TGI (MDA-N): 34.2 µM
11 | CC(=O)Nc1ccc(/C=C2\N=C(c3ccccc3)OC2=O)cc1 | > 100 |  | > 100 | > 100 | > 100 | > 100 | 
12 | COC1OC(CBr)C(OC(=O)c2ccccc2)C(OS(=O)(=O)c2ccc(C)cc2)C1Br (stereo unspecified) | > 100 | > 100 |  |  |  | > 100 | 
13 | COc1cc(/C=C/c2ccc(Br)cc2)cc(OC)c1OC | 29.8 | > 71.5 | 52.8 | > 74.6 | > 100 | > 100 | TGI (RXF-631 renal): > 75.4 µM
14 | COc1ccc(-c2ccccc2)c2[nH]c3c(c12)CCNC3=O | > 100 | > 100 |  |  | > 100 | > 100 | 
15 | O=C(CCl)Nc1cc(Cl)c(Cl)cc1Cl |  |  |  |  |  |  | TGI (MDA-N): 3.19 µM
16 | COc1ccc(S(=O)(=O)N[C@H](C(=O)O)c2ccccc2)cc1 | > 100 | > 100 | > 100 | > 100 | > 100 | > 100 | 
17 | CCOc1ccc(OCC)c([P+](c2ccccc2)(c2ccccc2)c2ccccc2)c1 | 4.13 | 16.3 | 3.18 | 6.22 | 16 | 10.4 | TGI (RXF-631 renal): 51.4 µM

— PubChem BioAssay (NCI)
